Source: patent publication US10934224B2, “Production of arginine-rich proteins from wastewater and use as a fertilizer” (Genebiologics, LLC, priority 2016, dated 2021)

Experiments:
E. coli strain NK5992 = experiment: Growth of E. coli arginine auxotroph on arginine or polyarginine; type: cell-based
Method: Cells were grown in triplicate at 37° C. on a 96-well plate with measurement at 600 nm using a Tecan InfiniteM200 pro.

[1] = Inhibition of cobalt binding to cation exchange resin; settings: for effect on binding of cobalt to CM sepharose: 2.5 μM CoCl2, 0.95 μM inhibitor
Method: After sitting for 1 minute the sepharose was washed 2× with water to remove excess cobalt and inhibitor. The cobalt was then stripped from the column material with 50 μl of 50 mM EDTA and this cobalt-containing wash was made basic with 50 μl of 50 mM NaOH. The cobalt-containing wash was then monitored on a DU800 spectroscope at 463 nm wavelength for the data of Table 2 (FIG. 7), and from 350 nm to 650 nm for FIG. 5. The data of FIG. 5 and FIG. 7 were from separate experiments acquired on two different days.

[2] = system: Arabidopsis thaliana seeds; experiment: Arabidopsis thaliana seed germination and growth in liquid culture; type: in vivo; settings: for root growth: 100 μg/ml in water; for optimal level (germination): day 4; for optimal level (biomass): day 5
Method: Approximately 300 Arabidopsis thaliana seeds were soaked in 75% ethanol for one minute, then soaked in 10% bleach, 0.02% TRITON×100 for five minutes, then washed five times with sterile water. The seeds were then resuspended in about 4 ml water, and dispensed into 30 Eppendorf tubes at approximately 100 microliters per tube, for a total of 8-9 seeds per tube. Test conditions included either water, 1× or 0.1×MS medium (Caisson; […] Root length and stem lengths are in mm.

[3] = cited from earlier work

polyarginine
growth of arginine auxotroph on the substance (E. coli strain NK5992; M9 medium, 37° C., 600 nm): does grow on polyarginine
growth relative to arginine monomer (E. coli strain NK5992; on a per-monomer equivalency): grows more poorly
effect on binding of cobalt to CM sepharose [1]: inhibited
root growth [2]: large amount of root growth
growth ([2]; 0.1× MS, 10 μg/ml, isolated case): increased growth
optimal level (germination) [2]: 100 µg/mL
optimal level (biomass) [2]: 100 µg/mL

N=C(N)NCCC[C@H](N)C(=O)O [arginine]
pKa of guanidinium group [3]: approximately 12.4
effect on binding of cobalt to CM sepharose [1]: not by the presence of arginine
effect on binding of cobalt to CM sepharose ([1]; listed as Arginine): enhanced the binding of cobalt
competition with cobalt for binding to CM sepharose ([1]; 2.6-fold excess cobalt per arginine monomer, anionic sites limiting): did not compete
root growth [2]: not found
optimal level (germination) [2]: 100 µg/mL
effect on percent germination ([2]; day 4, added to 0.1×MS medium): same relative effect
optimal level (biomass) [2]: 100 µg/mL
